Data on 26 compounds can be found in patent US20230083973A1, “SUBSTITUTED CYCLOPROPYL-2,2'-BIP[…], ANALOGUES THEREOF, AND METHODS USING SAME” (priority 2019, published 2023).

The first assay relates to HBsAg. As to the kind of experiment: HBsAg assay: inhibition of HBsAg in HepG2.2.15 cells (chemiluminescence immunoassay of supernatant). The following applies: Hepatitis B virus, HepG2.2.15, 144 h, read-out: sAg EC50, HepG2.2.15 cells; HBsAg in supernatant at day 6 after exposure to compound; 0.5% DMSO. The class given is cell-based, hepatitis B virus. The method, then: Inhibition of HBsAg was determined in HepG2.2.15 cells. Cells were maintained in culture medium containing 10% fetal calf serum, […], Glutamine, penicillin/streptomycin. Cells were seeded in 96-well collagen-coated plate at a density of 30,000 cells/well. Serially diluted compounds were added to cells next day at the final DMSO concentration of 0.5%. Cells were incubated with compounds for 2-3 days, after which medium was removed. Fresh medium containing compounds was added to cells for additional 3-4 days. At day 6 after exposure of compounds, supernatant was collected, the HBsAg immunoassay (microplate-based chemiluminescence immunoassay kits, CLIA, Autobio Diagnosics Co., Zhengzhou, China, Catalog # CL0310-2) was used to determine the level of HBsAg according to manufactory instruction. Dose-response curves were generated and the EC50 value (effective concentrations that achieved 50% inhibitory effect) were determined using XLfit software. In addition, cells were seeded at a density of 5,000 cells/well for determination of cell viability in the presence and absence of compounds by using CellTiter-Glo reagent (Promega).
Table 1 illustrates EC50 values obtained by the HBsAg assay for selected compounds.
The term EC50 denotes the midpoint of the concentration-response curve. Consider `CO[C@@H]1CCN(c2cc(C3CC3c3cnc(-c4ncccn4)nc3)ccc2F)C1` (single isomer, unassigned) [Example 94], for which the EC50 came to 270 nM. Still for that read-out and setting: the result for `COc1cc([C@@H]2C[C@H]2c2cnc(-c3ncccn3)nc2)cc(C(F)(F)F)c1F` (relative stereo) [Example 165, trans-5-(2-(4-Fluoro-3-methoxy-5-(trifluoromethyl)phenyl)cyclopropyl)-2,2′-bipyrimidine] reads 250 nM; that for `Cn1cnc(COc2cc([C@@H]3C[C@H]3c3cnc(-c4ncccn4)nc3)cc(F)c2F)n1` (relative stereo) [Example 217, trans-5-(2-(3,4-Difluoro-5-((1-methyl-1H-1,2,4-triazol-3-yl)methoxy)phenyl)cyclopropyl)-2,2′-bipyrimidine], 200 nM; that for `O[C@@H]1CCN(c2cc(C3CC3c3cnc(-c4ncccn4)nc3)cc(Cl)c2F)C1` (single isomer, unassigned) [Example 126], 120 nM. Still for that read-out and setting: the result for `COc1cc([C@@H]2C[C@H]2c2cnc(-c3ccccn3)nc2)cc(F)c1F` (relative stereo) [Example 174, trans-5-(2-(3,4-Difluoro-5-methoxyphenyl)cyclopropyl)-2-(pyridin-2-yl)pyrimidine] reads 67 nM; that for `Fc1cc([C@@H]2C[C@H]2c2cnc(-c3ncccn3)nc2)cc(N2CC3(COC3)C2)c1F` (relative stereo) [Example 209, trans-6-(5-(2-([2,2′-Bipyrimidin]-5-yl)cyclopropyl)-2,3-difluorophenyl)-2-oxa-6-azaspiro[3.3]heptane], 120 nM; that for `OCc1cnn(-c2cc([C@@H]3C[C@H]3c3cnc(-c4ncccn4)nc3)cc(F)c2F)c1` (relative stereo) [Example 234, trans-(1-(5-(2-([2,2′-Bipyrimidin]-5-yl)cyclopropyl)-2,3-difluorophenyl)-1H-pyrazol-4-yl)methanol], 140 nM.

The assay is the same for the next values; noted with them: read-out: sAg EC50; HepG2.2.15 cells; HBsAg in supernatant at day 6 after exposure to compound; 0.5% DMSO.
On to `COc1cc(C2CC2c2cnc(-c3ncccn3)nc2)cc(Cl)c1Cl` (single isomer, unassigned) [Example 60, trans-5-(2-(3,4-Dichloro-5-methoxyphenyl)cyclopropyl)-2,2′-bipyrimidine], for which the EC50 turned out to be 250 nM. `CN1CC[C@@H](Nc2cc(C3CC3c3cnc(-c4ncccn4)nc3)cc(F)c2F)C1` (single isomer, unassigned) [Example 231]: the EC50 worked out at 750 nM.

Take `COCCCOc1cc(F)c(Cl)cc1C1CC1c1cnc(-c2ncccn2)nc1` (single isomer, unassigned) [Example 154, trans-5-(2-(5-Chloro-4-fluoro-2-(3-methoxypropoxy)phenyl)cyclopropyl)-2,2′-bipyrimidine]: the concentration for a half-maximal effect (EC50) was found to be 300 nM. On the same count and under the same terms, the result for `Fc1cc(C2CC2c2cnc(-c3ncccn3)nc2)cc(NC2CCCC2)c1F` (single isomer, unassigned) [Example 208, trans-5-(2-([2,2′-Bipyrimidin]-5-yl)cyclopropyl)-N-cyclopentyl-2,3-difluoroaniline] reads 110 nM; that for `COc1cc(C2CC2c2cnc(-c3ncccn3)nc2)cc(Cl)c1Cl` (single isomer, unassigned) [Example 59, trans-5-(2-(3,4-Dichloro-5-methoxyphenyl)cyclopropyl)-2,2′-bipyrimidine], 32 nM; that for `COc1cc(C2CC2c2cnc(-c3ncccn3)nc2)cc(Cl)c1F` (single isomer, unassigned) [Example 148, trans-5-(2-(3-Chloro-4-fluoro-5-methoxyphenyl)cyclopropyl)-2,2′-bipyrimidine], 1000 nM. The same measure, in the same setting: the result for `Fc1ccc(C2CC2c2cnc(-c3ncccn3)nc2)cc1N1CCC(F)(F)C1` (single isomer, unassigned) [Example 43, trans-5-(2-(3-(3,3-Difluoropyrrolidin-1-yl)-4-fluorophenyl)cyclopropyl)-2,2′-bipyrimidine] reads 250 nM; that for `CN1CCN(c2cc(C3CC3c3cnc(-c4ncccn4)nc3)ccc2F)CC1` (single isomer, unassigned) [Example 187, trans-5-(2-(4-Fluoro-3-(4-methylpiperazin-1-yl)phenyl)cyclopropyl)-2,2′-bipyrimidine], 15000 nM; that for `CO[C@H]1CCN(c2cc(C3CC3c3cnc(-c4ncccn4)nc3)ccc2F)C1` (single isomer, unassigned) [Example 68], 85 nM. The same measure, in the same setting: the result for `Fc1cc(Cl)cc(C2CC2c2cnc(-c3ncccn3)nc2)c1` (single isomer, unassigned) [Example 119, trans-5-(2-(3-Chloro-5-fluorophenyl)cyclopropyl)-2,2′-bipyrimidine] reads 330 nM; that for `COCCOc1cc(C2CC2c2cnc(-c3ncccn3)nc2)cc(F)c1F` (single isomer, unassigned) [Example 135, trans-5-(2-(3,4-Difluoro-5-(2-methoxyethoxy)phenyl)cyclopropyl)-2,2′-bipyrimidine], 22 nM.

As for `Cc1cn(-c2cc(C3CC3c3cnc(-c4ncccn4)nc3)cc(F)c2F)cn1` (single isomer, unassigned) [Example 262, trans-5-(2-(3,4-Difluoro-5-(4-methyl-1H-imidazol-1-yl)phenyl)cyclopropyl)-2,2′-bipyrimidine], the EC50 is 47 nM. On the same count and under the same terms, the result for `COc1cc(F)cc(C2CC2c2cnc(-c3ncccn3)nc2)c1` (single isomer, unassigned) [Example 113, trans-5-(2-(3-Fluoro-5-methoxyphenyl)cyclopropyl)-2,2′-bipyrimidine] reads 26 nM; that for `COc1ccc(C2CC2c2cnc(-c3ncccn3)nc2)cc1F` (single isomer, unassigned) [Example 13, trans-5-(2-(3-Fluoro-4-methoxyphenyl)cyclopropyl)-2,2′-bipyrimidine], 82 nM; that for `COc1cc(C2CC2c2cnc(-c3ncccn3)nc2)cc(C)c1F` (single isomer, unassigned) [Example 151, trans-5-(2-(4-Fluoro-3-methoxy-5-methylphenyl)cyclopropyl)-2,2′-bipyrimidine], 81 nM. Consider `CO[C@@H]1CCN(c2cc(C3CC3c3cnc(-c4ncccn4)nc3)ccc2F)C1` (single isomer, unassigned) [Example 95], for which the EC50 stood at 170 nM.

On to `Oc1cnn(-c2cc(C3CC3c3cnc(-c4ncccn4)nc3)cc(F)c2F)c1` (single isomer, unassigned) [Example 260, trans-1-(5-(2-([2,2′-Bipyrimidin]-5-yl)cyclopropyl)-2,3-difluorophenyl)-1H-pyrazol-4-ol], for which the EC50 amounted to 670 nM. As to `CC1(C)CN(c2cc(C3CC3c3cnc(-c4ncccn4)nc3)cc(F)c2F)C1` (single isomer, unassigned) [Example 138, trans-5-(2-(3-(3,3-Dimethylazetidin-1-yl)-4,5-difluorophenyl)cyclopropyl)-2,2′-bipyrimidine], the EC50 was found to be 1000 nM. For the compound `COC1CN(c2cc([C@@H]3C[C@H]3c3cnc(-c4ncccn4)nc3)cc(F)c2F)C1` (single isomer, unassigned) [Example 122, trans-5-(2-(3,4-difluoro-5-(3-methoxyazetidin-1-yl)phenyl)cyclopropyl)-2,2′-bipyrimidine], the EC50 amounted to 61 nM.
